Experimental data: patent US20220135591A1, “HETEROCYCLIC COMPOUNDS AS INHIBITORS OF MONOACYLGLYCEROL LIPASE (MAGL)” (Hoffmann-La Roche Inc., priority 2019, published 2022)

Biological target: T1, MAGL (Homo sapiens, UniProt Q99685)
T1 sequence (Q99685 1-303): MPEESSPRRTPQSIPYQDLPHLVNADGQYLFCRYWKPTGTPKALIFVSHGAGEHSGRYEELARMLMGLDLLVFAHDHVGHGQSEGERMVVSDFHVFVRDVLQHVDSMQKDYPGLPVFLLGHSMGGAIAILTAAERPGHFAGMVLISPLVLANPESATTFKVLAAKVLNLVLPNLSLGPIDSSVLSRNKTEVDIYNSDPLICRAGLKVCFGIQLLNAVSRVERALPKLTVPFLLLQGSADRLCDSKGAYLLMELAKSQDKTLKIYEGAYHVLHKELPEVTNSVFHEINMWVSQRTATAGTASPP
Assay: 2-AG assay: MAGL inhibitory activity by hydrolysis of 2-arachidonoylglycerol to arachidonic acid, mass spectrometry
Assay type: biochemical
Conditions: 2-AG assay (values marked [b])
How it was run: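 Hydrolysis of 8 μM 2-arachidonoylglycerol by […] was run for 30 min at RT after a 15 min compound preincubation, in Tris/EDTA/Tween buffer. Test compounds spanned […]. The product was measured by online SPE-MS/MS (transitions 303.1→259.1 and 311.1→267.0), and activity was derived from the arachidonic acid/d8-arachidonic acid signal ratio.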

| IC50 [nM] | Structure (SMILES) |
| --- | --- |
| 57 | Cc1ccc2oc(N3CCN(C(=O)c4cnc(-c5cnn(CC(C)(C)C)n5)c(F)c4)CC3)nc2n1 [Example 245, (5-fluoro-6-(2-neopentyl-2H-1,2,3-triazol-4-yl)pyridin-3-yl)(4-(5-methyloxazolo[4,5-b]pyridin-2-yl)piperazin-1-yl)methanone] |
| 11 | Cc1ccc2oc(N3CCN(C(=O)c4cnc(-c5cnn(CC(C)(C)C)c5)c(C(F)(F)F)c4)CC3)nc2n1 [Example 282, [6-[1-(2,2-dimethylpropyl)pyrazol-4-yl]-5-(trifluoromethyl)-3-pyridyl]-[4-(5-methyloxazolo[4,5-b]pyridin-2-yl)piperazin-1-yl]methanone] |
| 63 | CC(C)(C)Cn1cc(-c2ccc(C(=O)N3CCN(c4nc5nc(Cl)ccc5o4)C[C@H]3CO)cc2)nn1 (stereo in doubt) [Example 289, [(2S)-4-(5-chlorooxazolo[4,5-b]pyridin-2-yl)-2-(hydroxymethyl)piperazin-1-yl]-[4-[1-(2,2-dimethylpropyl)triazol-4-yl]phenyl]methanone] |
| 36 | CC(C)(C)c1nnc(-c2ccc(C(=O)N3CCN(c4nc5nc(Cl)ccc5o4)CC3)cc2F)o1 [Example 281, [4-(5-tert-butyl-1,3,4-oxadiazol-2-yl)-3-fluoro-phenyl]-[4-(5-chlorooxazolo[4,5-b]pyridin-2-yl)piperazin-1-yl]methanone] |
| 34 | Cc1ccc2oc(N3CCN(C(=O)c4ccc(-c5ncn(CC(C)(C)C)n5)c(F)c4)CC3)nc2n1 [Example 294, [4-[1-(2,2-dimethylpropyl)-1,2,4-triazol-3-yl]-3-fluoro-phenyl]-[4-(5-methyloxazolo[4,5-b]pyridin-2-yl)piperazin-1-yl]methanone] |
| 114 | Cc1cc(C(=O)N2CCN(c3nc4nc(Cl)ccc4o3)CC2)ccc1-n1cnc(C(C)(C)C)n1 [Example 287, [4-(3-tert-butyl-1,2,4-triazol-1-yl)-3-methyl-phenyl]-[4-(5-chlorooxazolo[4,5-b]pyridin-2-yl)piperazin-1-yl]methanone] |

Continued, molecule first:

| Structure (SMILES) | IC50 [nM] |
| --- | --- |
| Cc1ccc2oc(N3CCN(C(=O)c4ccc(-c5cnn(CC(C)(C)C)n5)c(C#N)c4)CC3)nc2n1 [Example 236, 5-(4-(5-methyloxazolo[4,5-b]pyridin-2-yl)piperazine-1-carbonyl)-2-(2-neopentyl-2H-1,2,3-triazol-4-yl)benzonitrile] | 33 |
| CC(C)(C#N)Cn1ncc(-c2ccc(C(=O)N3CCN(c4nc5nc(Cl)ccc5o4)CC3)cc2)n1 [Example 136, 3-[4-[4-[4-(5-chlorooxazolo[4,5-b]pyridin-2-yl)piperazine-1-carbonyl]phenyl]triazol-2-yl]-2,2-dimethyl-propanenitrile] | 34 |
| Cc1ccc2oc(N3CCN(C(=O)c4ccc(-c5ncn(C(C)(C)C)n5)c(C)c4)CC3)nc2n1 [Example 96, (4-(1-(tert-butyl)-1H-1,2,4-triazol-3-yl)-3-methylphenyl)(4-(5-methyloxazolo[4,5-b]pyridin-2-yl)piperazin-1-yl)methanone] | 23 |
| O=C(c1cnc(OCC2(C(F)(F)F)CC2)c(C(F)(F)F)c1)N1CCN(c2nc3nc(Cl)ccc3o2)CC1 [Example 154, (4-(5-chlorooxazolo[4,5-b]pyridin-2-yl)piperazin-1-yl)(5-(trifluoromethyl)-6-((1-(trifluoromethyl)cyclopropyl)methoxy)pyridin-3-yl)methanone] | 8 |
| CCC1(COc2ncc(C(=O)N3CCN(c4nc5nc(Cl)ccc5o4)CC3)cc2C)COC1 [Example 159, (4-(5-chlorooxazolo[4,5-b]pyridin-2-yl)piperazin-1-yl)(6-((3-ethyloxetan-3-yl)methoxy)-5-methylpyridin-3-yl)methanone] | 117 |
| O=C(c1ccc(-c2cn(CC(F)(F)F)nn2)cc1)N1CCN(c2nc3nc(Cl)ccc3o2)CC1 [Example 98, (4-(5-chlorooxazolo[4,5-b]pyridin-2-yl)piperazin-1-yl)(4-(1-(2,2,2-trifluoroethyl)-1H-1,2,3-triazol-4-yl)phenyl)methanone] | 144 |
